{"source": "patent US20200352947A1", "about": "“USE OF SEROTONERGIC DRUGS TO TREAT VIRUS-INDUCED THROMBOCYTOPENIA” (NATIONAL UNIVERSITY OF SINGAPORE, priority 2017, published 2020)", "key": {"DENV2-infected mice [1]": {"tested_on": "DENV2-infected mice", "assay": "Platelet counts (thrombocytopenia) in DENV2-infected WT mice", "assay_type": "in vivo", "conditions": "mice, 10^6 pfu DENV2 IP; WAY-100135 3 mg/kg, ketanserin 8 mg/kg or sarpogrelate 3 mg/kg; 24 hours post-infection; n=5", "procedure": "Platelet counts of DENV2 infected mice. Mice were infected via intraperitoneal route (IP) with 10^6 plaque forming units (pfu) and were given either vehicle (1% DMSO) or ketanserin 8 mg/kg IP. Blood was taken via cheek bleed 24 hours post-infection and platelet counts were measured using an automated hematology analyzer. DENV2 infection induces thrombocytopenia, but ketanserin treatment is able to prevent thrombocytopenia (n=5). Mean values are presented and error bars represent the SEM. P values were determined by Student's unpaired t test; ***P<0.001, ****P<0.0001.\nPlatelet counts of DENV2 infected mice. Mice were infected IP with 10^6 pfu of DENV2 and were given either vehicle, the 5HT1A antagonist WAY-100135, or either of the 5HT2A antagonists, ketanserin and sarpogrelate. Blood was taken via cheek bleed 24 hours post-infection and platelet counts were measured using an automated hematology analyzer. DENV2 infection induced thrombocytopenia that was able to be prevented through administration of serotonin receptor antagonists (n=5). Mean values are presented and error bars represent the SEM. P values were determined by one-way ANOVA; ***p<0.001, ****P<0.0001.\nWT mice were infected via intraperitoneal route (IP) with 10^6 plaque forming units (pfu) of DENV2 and were given either vehicle (1% DMSO) or ketanserin (8 mg/kg) IP. Blood was taken via cheek bleed 24 hours post-infection and platelet counts were measured using an automated hematology analyzer.\nOne limitation of the experimental protocol in Examples 10 and 11 is that the vehicle used to deliver ketanserin in mice, DMSO, can itself interfere with platelet aggregation [Rosenblum, W. I. & El-Sabban. F. Stroke 13, 35-39 (1982)]. This difference can be observed by comparing the severity of thrombocytopenia in dengue-infected mice between FIGS. 1 and 10. Accordingly, newer serotonin receptor antagonists that are more soluble in saline were tested, to determine whether a similar effect is seen even without the confounding effects of DMSO. Mice were infected IP with 10^6 pfu of DENV2 and were given either vehicle, the 5HT1A antagonist WAY-100135 (3 mg/kg), or one of the 5HT2A antagonists ketanserin (8 mg/kg) or sarpogrelate (3 mg/kg). Blood was taken via cheek bleed 24 hours post-infection and platelet counts were measured using an automated hematology analyzer."}, "DENV2-infected mice [2]": {"tested_on": "DENV2-infected mice", "assay": "Platelet counts and platelet activation in DENV2-infected mice pretreated with fluoxetine", "assay_type": "in vivo", "conditions": "fluoxetine 20 mg/kg/day in drinking water for 2 weeks, then 10^6 pfu DENV2 IP; 24 and 72 hours; n=5", "procedure": "Mice were administered fluoxetine (20 mg/kg/day) or vehicle via drinking water for 2 weeks. Mice were then infected with 10^6 pfu of DENV2 intraperitoneally. At 24 and 72 hours, blood was collected and platelet counts were measured. The reduction in platelet counts and increased platelet activation induced by DENV was prevented by fluoxetine treatment (n=5). Mean values are presented and error bars represent the SEM. P values were determined by one-way ANOVA; *P<0.05, **P<0.01, ***P<0.001, ****P<0.0001.\nFluoxetine, an SSRI, prevents the uptake of serotonin into platelets. Activation of platelets by DENV (FIG. 3), will result in the release of stored serotonin, which can act in a positive feedback loop. Mice were treated with fluoxetine (20 mg/kg/day) or vehicle in drinking water for 2 weeks and infected with 10^6 pfu of DENV IP. At 24 and 72 hours, blood was collected and platelet counts were measured. The reduction in platelet counts and increased platelet activation induced by DENV was inhibited by fluoxetine treatment (FIG. 15)."}, "DENV2-infected WT mice": {"tested_on": "DENV2-infected WT mice", "assay": "Exogenous serotonin in DENV2-infected and uninfected WT mice", "assay_type": "in vivo", "conditions": "serotonin 150 mg/kg daily", "procedure": "(A) WT mice were infected with DENV2 (1×10^6 pfu i.p.) and treated with 150 mg/kg of serotonin or vehicle daily. […] (B) Blood of DENV infected mice treated with serotonin or vehicle was isolated and stained for platelet marker CD41 and activation marker CD62P and analyzed by flow cytometry. […] (C) Representative peripheral blood smears, day 3 post-infection, show platelet aggregation (dashed lines), which was more visually apparent following exogenous serotonin treatment compared to DENV infection. Some individual platelets are indicated by arrows. Scale bar=25 μm. Mean values are presented and error bars represent the SEM. P values were determined by Student's unpaired t test; *P<0.05, ns: non-significant.\nWT mice were infected with DENV and administered exogenous serotonin to determine if there was an increase in platelet activation mediated by serotonin and if this would worsen thrombocytopenia in vivo."}, "human platelets": {"tested_on": "human platelets", "assay": "Platelet activation (CD41/CD62P flow cytometry) in stimulated human whole blood", "assay_type": "cell-based", "conditions": "15 min stimulation; CD41/CD62P flow cytometry; n=4", "procedure": "(A) Whole blood from healthy human volunteers was isolated and stimulated with DENV2, serotonin, or DENV2+serotonin for 15 min. Cells were then fixed and stained for platelet markers CD41 and CD62P and analyzed by flow cytometry. DENV raised the activation levels of platelets. […] (B) Human whole blood was stimulated with DENV2, mast cells (MCs) or DENV2+MCs in the presence of vehicle or ketanserin (100 nM or 500 nM) for 15 min prior to assessment of platelet activation. […] Mean values are presented and error bars represent the SEM. P values were determined by one-way ANOVA; *P<0.05, ** P<0.01, ***P<0.001, ****P<0.0001, ns: non-significant.\nAdditionally, products from DENV-stimulated human mast cells promoted platelet activation, dependent on platelet 5HT2A receptor, since this effect was abolished by ketanserin (FIG. 9B). […] Furthermore, ketanserin is effective in reversing DENV-induced human platelet activation."}, "DENV2-infected Sash mice": {"tested_on": "DENV2-infected Sash mice", "assay": "Exogenous serotonin in DENV2-infected mast cell-deficient (Sash) mice", "assay_type": "in vivo", "conditions": "serotonin 150 mg/kg daily", "procedure": "(A) Sash mice were infected with DENV2 and treated with 150 mg/kg of serotonin or vehicle daily. Blood was taken for analysis 3 days post-infection. […] (C) Representative eosin and methylene blue staining of peripheral blood smears day 3 post-infection. Some individual platelets are indicated by arrows. Platelet aggregates are surrounded by a dashed line. Scale bar=25 μm. Means are presented with error bars representing the SEM. P values were determined by Student's unpaired t test; ns: non-significant, **P<0.01, ***P<0.001."}}, "data": [{"smiles": "COc1ccccc1N1CCN(C[C@@H](C(=O)NC(C)(C)C)c2ccccc2)CC1", "note": "[WAY-100135, (S)-N-tert-butyl-3-(4-(2-methoxyphenyl)-piperazin-1-yl)-2-phenylpropanamide]", "values": [{"measurement": "platelet counts (DENV2-induced thrombocytopenia)", "setting": "DENV2-infected mice [1]", "result": "prevented"}]}, {"smiles": "CNCCC(Oc1ccc(C(F)(F)F)cc1)c1ccccc1", "note": "(stereo not shown) [fluoxetine]", "values": [{"measurement": "increased platelet activation induced by DENV", "setting": "DENV2-infected mice [2]", "result": "inhibited"}, {"measurement": "reduction in platelet counts induced by DENV", "setting": "DENV2-infected mice [2]", "result": "inhibited"}]}, {"smiles": "COc1cccc(CCc2ccccc2OCC(CN(C)C)OC(=O)CCC(=O)O)c1", "note": "(stereo not shown) [sarpogrelate, 4-[1-(dimethylamino)-3-[2-[2-(3-methoxyphenyl)ethyl]phenoxy]propan-2-yl]oxy-4-oxobutanoic acid]", "values": [{"measurement": "platelet counts (DENV2-induced thrombocytopenia)", "setting": "DENV2-infected mice [1]", "result": "prevented"}]}, {"smiles": "NCCc1c[nH]c2ccc(O)cc12", "note": "[serotonin]", "values": [{"measurement": "platelet aggregates in peripheral blood films", "setting": "DENV2-infected WT mice; DENV2-infected WT mice, day 3 post-infection", "result": "platelet aggregates increased"}, {"measurement": "platelet activation (CD41/CD62P) in infected mice", "setting": "DENV2-infected WT mice; DENV2-infected WT mice, n=6-12", "result": "further increased"}, {"measurement": "platelet counts (thrombocytopenia) in infected mice", "setting": "DENV2-infected WT mice; WT mice, DENV2 1×10^6 pfu i.p., 3 days post-infection", "result": "worsened thrombocytopenia during DENV infection compared to vehicle-treated mice"}, {"measurement": "platelet activation (CD41/CD62P) in uninfected mice", "setting": "DENV2-infected WT mice; uninfected WT mice", "result": "did not result in platelet activation in uninfected mice"}, {"measurement": "platelet counts in uninfected mice", "setting": "DENV2-infected WT mice; uninfected WT mice", "result": "did not affect platelet counts in uninfected WT mice"}, {"measurement": "platelet activation in human whole blood stimulated with DENV2+serotonin", "setting": "human platelets", "result": "significantly enhanced platelet activation over control and DENV groups"}, {"measurement": "circulating platelet counts", "setting": "DENV2-infected Sash mice; 3 days post-infection", "result": "significantly reduced circulating platelet counts compared to vehicle (mock)-treated animals"}, {"measurement": "platelet activation", "setting": "DENV2-infected Sash mice; 3 days post-infection, n=5-8", "result": "increased platelet activation in infected mice compared to vehicle treated controls"}, {"measurement": "platelet aggregates in peripheral blood films", "setting": "DENV2-infected Sash mice; day 3 post-infection", "result": "increased platelet aggregates"}]}]}
